According to patent US20140018347A1, “BENZOXAZEPINES AS INHIBITORS OF mTOR AND METHODS OF THEIR USE AND MANUFACTURE” (Exelixis, Inc., priority 2010, published 2014):

Experiments:
mTORC1 = mTORC1 (Homo sapiens, UniProt P42345); test: mTOR/GbL/Raptor (mTORC1) ELISA Assay; format: biochemical; settings: phosphorylation of 4E-BP1; 0.2 nM mTORC1, 10 μM ATP
Procedure: The measurement of mTORC1 enzyme activity was performed in an ELISA assay format following the phosphorylation of 4E-BP1 protein. All experiments were performed in the 384-well format. Generally, 0.5 μL DMSO containing varying concentrations of the test compound was mixed with 15 μL enzyme solution. Kinase reactions were initiated with the addition of 15 μL of substrates-containing solution. The assay conditions were as follows; 0.2 nM mTORC1, 10 μM ATP and 50 nM NHis-tagged 4E-BP1 in 20 mM Hepes, pH 7.2, 1 mM DTT, 50 mM NaCl, 10 mM MnCl2, 0.02 mg/mL BSA, 0.01% CHAPS, 50 mM β-glycerophosphate. Following an incubation of 120 minutes at ambient temperature, 20 μL of the reaction volume was transferred to a Ni-Chelate-coated 384-well plate. The binding step of the 4E-BP1 protein proceeded for 60 minutes, followed by washing 4 times each with 50 μL of Tris-buffered saline solution (TBS). Anti-phospho-4E-BP1 rabbit-IgG (20 μL, 1:5000) in 5% BSA-TBST (0.2% Tween-20 in TBS) was added and further incubated for 60 minutes. Incubation with a secondary HRP-tagged anti-IgG was similarly performed after washing off the primary antibody (4 washes of 50 μL). Following the final wash step with TBST, 20 μL of SuperSignal ELISA Femto (Pierce Biotechnology) was added and the luminescence measured using an EnVision plate reader.

PI3Kalpha = PI3Kalpha (Homo sapiens, UniProt P42336); test: PI3K Biochemical Assays (PI3K-alpha assay); settings: ATP consumption, luciferase-luciferin; 1 μM ATP, 10 μM PIP2
PI3Kalpha, sequence (P42336 whole entry): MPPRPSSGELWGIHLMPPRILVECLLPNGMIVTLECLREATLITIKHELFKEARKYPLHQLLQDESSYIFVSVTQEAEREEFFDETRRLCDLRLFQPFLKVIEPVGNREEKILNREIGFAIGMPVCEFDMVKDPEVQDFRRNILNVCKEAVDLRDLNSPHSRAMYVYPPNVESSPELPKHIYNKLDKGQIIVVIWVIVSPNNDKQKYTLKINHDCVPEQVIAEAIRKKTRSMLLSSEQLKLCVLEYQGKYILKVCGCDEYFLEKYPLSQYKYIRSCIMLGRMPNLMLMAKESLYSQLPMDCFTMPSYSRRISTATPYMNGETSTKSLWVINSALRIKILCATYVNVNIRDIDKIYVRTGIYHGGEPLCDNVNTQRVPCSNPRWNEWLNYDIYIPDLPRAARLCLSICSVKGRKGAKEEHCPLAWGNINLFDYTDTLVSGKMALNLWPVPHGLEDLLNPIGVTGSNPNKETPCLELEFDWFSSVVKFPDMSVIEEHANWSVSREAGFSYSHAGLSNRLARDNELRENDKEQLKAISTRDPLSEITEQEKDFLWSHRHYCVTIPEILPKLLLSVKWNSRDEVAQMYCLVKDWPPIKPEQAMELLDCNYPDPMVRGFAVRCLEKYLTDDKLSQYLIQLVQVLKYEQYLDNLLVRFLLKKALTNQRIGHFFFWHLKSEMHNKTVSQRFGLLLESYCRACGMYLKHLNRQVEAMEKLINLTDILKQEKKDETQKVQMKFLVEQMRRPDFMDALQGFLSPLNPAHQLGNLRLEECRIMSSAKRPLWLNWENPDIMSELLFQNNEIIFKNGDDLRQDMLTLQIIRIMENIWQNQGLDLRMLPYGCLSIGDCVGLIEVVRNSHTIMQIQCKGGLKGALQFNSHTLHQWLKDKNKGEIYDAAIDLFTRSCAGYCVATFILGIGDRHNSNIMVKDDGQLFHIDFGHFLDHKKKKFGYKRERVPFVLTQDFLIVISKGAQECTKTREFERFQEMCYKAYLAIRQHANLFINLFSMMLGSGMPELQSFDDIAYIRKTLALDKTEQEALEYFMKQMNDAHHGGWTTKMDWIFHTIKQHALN
PI3Kalpha, sequence (P27986 whole entry partner): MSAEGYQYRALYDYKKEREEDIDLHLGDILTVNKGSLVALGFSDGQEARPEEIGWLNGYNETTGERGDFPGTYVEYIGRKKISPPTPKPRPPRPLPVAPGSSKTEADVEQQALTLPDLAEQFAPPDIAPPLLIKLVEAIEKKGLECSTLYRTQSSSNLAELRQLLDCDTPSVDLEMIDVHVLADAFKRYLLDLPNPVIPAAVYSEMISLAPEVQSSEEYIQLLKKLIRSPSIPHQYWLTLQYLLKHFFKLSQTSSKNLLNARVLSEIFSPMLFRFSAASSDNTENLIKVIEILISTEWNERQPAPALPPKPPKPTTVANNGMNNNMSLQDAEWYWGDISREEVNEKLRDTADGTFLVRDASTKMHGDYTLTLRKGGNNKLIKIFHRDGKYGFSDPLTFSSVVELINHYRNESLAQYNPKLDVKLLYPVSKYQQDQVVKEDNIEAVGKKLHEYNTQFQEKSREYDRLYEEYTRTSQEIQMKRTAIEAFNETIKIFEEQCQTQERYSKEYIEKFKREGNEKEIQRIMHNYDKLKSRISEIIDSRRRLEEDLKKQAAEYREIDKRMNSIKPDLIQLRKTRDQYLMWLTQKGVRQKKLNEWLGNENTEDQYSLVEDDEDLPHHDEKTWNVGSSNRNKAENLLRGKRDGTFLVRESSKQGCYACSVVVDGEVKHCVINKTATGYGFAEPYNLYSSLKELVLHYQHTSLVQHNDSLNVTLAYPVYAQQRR
Procedure: PI3Kn activity was measured as the percent of ATP consumed following the kinase reaction using luciferase-luciferin-coupled chemiluminescence. Reactions were conducted in 384-well white, medium binding microtiter plates (Greiner). Kinase reactions were initiated by combining test compounds, ATP, substrate (PIP2), and kinase in a 20 μL volume in a buffer solution. The standard PI3Kalpha assay buffer was composed 50 mM Tris, pH 7.5, 1 mM EGTA, 10 mM MgCl2, 1 mM DTT and 0.03% CHAPS. The standard assay concentrations for enzyme, ATP, and substrate were 3 nM, 1 μM, and 10 μM, respectively. The reaction mixture was incubated at ambient temperature for approximately 2 h. Following the kinase reaction, a 10 μL aliquot of luciferase-luciferin mix (Promega Kinase-Glo) was added and the chemiluminescence signal measured using a Victor2 or EnVision (Perkin Elmer). Total ATP consumption was limited to 40-60% and IC50 values of control compounds correlate well with literature references. Substituting PI3Kα with PI3Krβ, PI3Kγ, or PI3Kδ, the inhibitory activity of the compounds for the other isoforms of PI3K were measured. For the PI3Kβ and PI3Kδ assays, enzyme concentrations were 10 nM and 4 nM, respectively. For the PI3Kγ assay, enzyme concentration was 40 nM, the incubation time was 1 h, and the concentration of MgCl2 in the assay buffer was 5 mM.

Row | SMILES | IC50 (mTORC1) [nM] | IC50 (PI3Kalpha) [nM]
1 | CCc1c(C)nc(CN(C)C)nc1N1CCOc2ccc(-c3cnc4sc(N)nc4c3)cc2C1 [Compound 1, 6-(4-{2-[(dimethylamino)methyl]-5-ethyl-6-methylpyrimidin-4-yl)-2,3,4,5-tetrahydro-1,4-benzoxazepin-7-yl)[1,3]thiazolo[5,4-b]pyridin-2-amine] | 100 to 500 | ≤ 100
2 | Cc1nc(CN(C)C)nc(N2CCOc3ccc(-c4cnc5sc(N)nc5c4)cc3C2)c1C [Compound 2, 6-(4-{2-[(dimethylamino)methyl]-5,6-dimethylpyrimidin-4-yl}-2,3,4,5-tetrahydro-1,4-benzoxazepin-7-yl)[1,3]thiazolo[5,4-b]pyridin-2-amine] | 500 to 2500 | ≤ 100
3 | Cc1nc(CO)nc(N2CCOc3ccc(-c4cnc5sc(N)nc5c4)cc3C2)c1C(C)C [Compound 3, {4-[7-(2-amino[1,3]thiazolo[5,4-b]pyridin-6-yl)-2,3-dihydro-1,4-benzoxazepin-4(5H)-yl]-6-methyl-5-(1-methylethyl)pyrimidin-2-yl}methanol] | ≤ 100 | ≤ 100
4 | CCN(CC)Cc1nc(C)c(C(C)C)c(N2CCOc3ccc(-c4cnc5sc(N)nc5c4)cc3C2)n1 [Compound 4, 6-(4-{2-[(diethylamino)methyl]-6-methyl-5-(1-methylethyl)pyrimidin-4-yl}-2,3,4,5-tetrahydro-1,4-benzoxazepin-7-yl)[1,3]thiazolo[5,4-b]pyridin-2-amine] | ≤ 100 | ≤ 100
5 | Cc1nc(N)nc(N2CCOc3ccc(-c4cnc5sc(N)nc5c4)cc3C2)c1C [Compound 5, 6-[4-(2-amino-5,6-dimethylpyrimidin-4-yl)-2,3,4,5-tetrahydro-1,4-benzoxazepin-7-yl][1,3]thiazolo[5,4-b]pyridin-2-amine] | 100 to 500 | ≤ 100
6 | CCc1c(C)nc(N)nc1N1CCOc2ccc(-c3cnc4sc(N)nc4c3)cc2C1 [Compound 6, 6-[4-(2-amino-5-ethyl-6-methylpyrimidin-4-yl)-2,3,4,5-tetrahydro-1,4-benzoxazepin-7-yl][1,3]thiazolo[5,4-b]pyridin-2-amine] | ≤ 100 | ≤ 100
7 | CCc1c(Cl)nc(N)nc1N1CCOc2ccc(-c3cnc4sc(N)nc4c3)cc2C1 [Compound 7, 6-[4-(2-amino-6-chloro-5-ethylpyrimidin-4-yl)-2,3,4,5-tetrahydro-1,4-benzoxazepin-7-yl][1,3]thiazolo[5,4-b]pyridin-2-amine] | ≤ 100 | ≤ 100
8 | CC(C)c1c(Cl)nc(N)nc1N1CCOc2ccc(-c3cnc4sc(N)nc4c3)cc2C1 [Compound 8, 6-{4-[2-amino-6-chloro-5-(1-methylethyl)pyrimidin-4-yl]-2,3,4,5-tetrahydro-1,4-benzoxazepin-7-yl}[1,3]thiazolo[5,4-b]pyridin-2-amine] | ≤ 100 | ≤ 100
9 | CCCc1c(Cl)nc(N)nc1N1CCOc2ccc(-c3cnc4sc(N)nc4c3)cc2C1 [Compound 9, 6-[4-(2-amino-6-chloro-5-propylpyrimidin-4-yl)-2,3,4,5-tetrahydro-1,4-benzoxazepin-7-yl][1,3]thiazolo[5,4-b]pyridin-2-amine] | ≤ 100 | ≤ 100
10 | CC(C)c1c(F)nc(N)nc1N1CCOc2ccc(-c3cnc4sc(N)nc4c3)cc2C1 [Compound 10, 6-{4-[2-amino-6-fluoro-5-(1-methylethyl)pyrimidin-4-yl]-2,3,4,5-tetrahydro-1,4-benzoxazepin-7-yl}[1,3]thiazolo[5,4-b]pyridin-2-amine] | ≤ 100 | ≤ 100
11 | C=Cc1c(Cl)nc(N)nc1N1CCOc2ccc(-c3cnc4sc(N)nc4c3)cc2C1 [Compound 11, 6-[4-(2-amino-6-chloro-5-ethenylpyrimidin-4-yl)-2,3,4,5-tetrahydro-1,4-benzoxazepin-7-yl][1,3]thiazolo[5,4-b]pyridin-2-amine] | ≤ 100 | ≤ 100
12 | COCCc1c(C)nc(N)nc1N1CCOc2ccc(-c3cnc4sc(N)nc4c3)cc2C1 [Compound 12, 6-(4-{2-amino-6-methyl-5-[2-(methyloxy)ethyl]pyrimidin-4-yl)-2,3,4,5-tetrahydro-1,4-benzoxazepin-7-yl)[1,3]thiazolo[5,4-b]pyridin-2-amine] | ≤ 100 | ≤ 100
13 | COCCc1c(C)nc(CN(C)C)nc1N1CCOc2ccc(-c3cnc4sc(N)nc4c3)cc2C1 [Compound 13, 6-(4-{2-[(dimethylamino)methyl]-6-methyl-5-[2-(methyloxy)ethyl]pyrimidin-4-yl}-2,3,4,5-tetrahydro-1,4-benzoxazepin-7-yl)[1,3]thiazolo[5,4-b]pyridin-2-amine] | 100 to 500 | ≤ 100
14 | COC(=O)Cc1c(C)nc(CN(C)C)nc1N1CCOc2ccc(-c3cnc4sc(N)nc4c3)cc2C1 [Compound 14, methyl {4-[7-(2-amino[1,3]thiazolo[5,4-b]pyridin-6-yl)-2,3-dihydro-1,4-benzoxazepin-4(5H)-yl]-2-[(dimethylamino)methyl]-6-methylpyrimidin-5-yl}acetate] | 100 to 500 | ≤ 100
15 | Nc1nc2c(c(N3CCOc4ccc(-c5cnc6sc(N)nc6c5)cc4C3)n1)CCC2 [Compound 15, 6-[4-(2-amino-6,7-dihydro-5H-cyclopenta[d]pyrimidin-4-yl)-2,3,4,5-tetrahydro-1,4-benzoxazepin-7-yl][1,3]thiazolo[5,4-b]pyridin-2-amine] | ≤ 100 | ≤ 100
16 | Nc1nc(Cl)cc(N2CCOc3ccc(-c4cnc5sc(N)nc5c4)cc3C2)n1 [Compound 16, 6-[4-(2-amino-6-chloropyrimidin-4-yl)-2,3,4,5-tetrahydro-1,4-benzoxazepin-7-yl][1,3]thiazolo[5,4-b]pyridin-2-amine] | 100 to 500 | 100 to 500
17 | C=Cc1c(N2CCOc3ccc(-c4cnc5sc(N)nc5c4)cc3C2)nc(N)nc1C(F)(F)F [Compound 17, 6-{4-[2-amino-5-ethenyl-6-(trifluoromethyl)pyrimidin-4-yl]-2,3,4,5-tetrahydro-1,4-benzoxazepin-7-yl}[1,3]thiazolo[5,4-b]pyridin-2-amine] | ≤ 100 | ≤ 100
18 | Cc1nc(CN(C)C)nc(N2CCOc3ccc(-c4cnc5sc(N)nc5c4)cc3C2)c1CC(=O)O [Compound 18, {4-[7-(2-amino[1,3]thiazolo[5,4-b]pyridin-6-yl)-2,3-dihydro-1,4-benzoxazepin-4(5H)-yl]-2-[(dimethylamino)methyl]-6-methylpyrimidin-5-yl}acetic acid] | 500 to 2500 | 100 to 500
19 | CC(C)c1c(Br)nc(N)nc1N1CCOc2ccc(-c3cnc4sc(N)nc4c3)cc2C1 [Compound 19, 6-{4-[2-amino-6-bromo-5-(1-methylethyl)pyrimidin-4-yl]-2,3,4,5-tetrahydro-1,4-benzoxazepin-7-yl}[1,3]thiazolo[5,4-b]pyridin-2-amine] | ≤ 100 | ≤ 100
20 | Cc1nc(C(N)=O)nc(N2CCOc3ccc(-c4cnc5sc(N)nc5c4)cc3C2)c1C(C)C [Compound 20, 4-[7-(2-amino[1,3]thiazolo[5,4-b]pyridin-6-yl)-2,3-dihydro-1,4-benzoxazepin-4(5H)-yl]-6-methyl-5-(1-methylethyl)pyrimidine-2-carboxamide] | ≤ 100 | ≤ 100
21 | Cc1nc(CNS(C)(=O)=O)nc(N2CCOc3ccc(-c4cnc5sc(N)nc5c4)cc3C2)c1C(C)C [Compound 21, N-({4-[7-(2-amino[1,3]thiazolo[5,4-b]pyridin-6-yl)-2,3-dihydro-1,4-benzoxazepin-4(5H)-yl]-6-methyl-5-(1-methylethyl)pyrimidin-2-yl}methyl)methanesulfonamide] | ≤ 100 | ≤ 100
22 | CNc1nc(C)c(C(C)C)c(N2CCOc3ccc(-c4cnc5sc(N)nc5c4)cc3C2)n1 [Compound 92, 6-{4-[6-methyl-2-(methylamino)-5-(1-methylethyl)pyrimidin-4-yl]-2,3,4,5-tetrahydro-1,4-benzoxazepin-7-yl}[1,3]thiazolo[5,4-b]pyridin-2-amine] | ≤ 100 | –
